Test results as given in the NIST ThermoML archive (doi:10.1016/j.tca.2016.03.002).

Experiment: xn = mol fraction of the nth substance listed
Conditions: 100 kPa, Liquid; for viscosity: Capillary tube (Ostwald / Ubbelohde) method; for mass density: Vibrating tube method

NC1CCCCC1 [cyclohexylamine] + CO
Conditions | mass density, 293.15 K [kg/m3] | mass density, 298.15 K [kg/m3] | mass density, 303.15 K [kg/m3] | viscosity, 293.15 K [mPa·s] | viscosity, 298.15 K [mPa·s] | viscosity, 303.15 K [mPa·s]
x2 = 0 | 866.86 | 862.315 | 857.774 | 2.142 | 1.908 | 1.697
x2 = 0.0666 | 867.932 | 863.427 | 858.919 | 2.16 | 1.92 | 1.71
x2 = 0.1108 | 868.284 | 863.705 | 859.196 | 2.17 | 1.93 | 1.71
x2 = 0.2089 | 869.337 | 864.848 | 860.385 | 2.18 | 1.94 | 1.72
x2 = 0.3043 | 869.454 | 864.932 | 860.42 | 2.19 | 1.94 | 1.72
x2 = 0.4097 | 868.83 | 864.276 | 859.728 | 2.16 | 1.91 | 1.69
x2 = 0.4479 | 868.248 | 863.674 | 859.094 | 2.13 | 1.88 | 1.66
x2 = 0.493 | 867.202 | 862.605 | – | 2.07 | 1.83 | –
x2 = 0.4931 | – | – | 858.005 | – | – | 1.62
x2 = 0.5478 | 865.137 | 860.518 | 855.9 | 1.99 | 1.76 | 1.56
x2 = 0.5961 | 862.688 | 858.069 | – | 1.89 | 1.67 | –
x2 = 0.5966 | – | – | 853.451 | – | – | 1.48
x2 = 0.659 | 858.061 | 853.437 | 848.818 | 1.7 | 1.52 | 1.35
x2 = 0.7014 | 853.915 | 849.321 | 844.723 | 1.56 | 1.4 | 1.26
x2 = 0.798 | 841.114 | 836.513 | 831.905 | 1.22 | 1.11 | 1.04
x2 = 0.8992 | 820.891 | 816.251 | 811.617 | 0.89 | 0.78 | 0.75
x2 = 0.9503 | 807.371 | 802.691 | 798.008 | 0.72 | 0.67 | 0.62
